A value given as a limit tells only on which side of the number the result lay.

The target in one experiment is KRAS G12C (Homo sapiens, UniProt P01116, G12C). The experiment can be described thus: GDP-GTP exchange assay (KRAS_G12C exchange). Type of experiment: biochemical. To be noted: bodipy-GDP loaded KRAS G12C 2.5 nM, SOS1 150 nM, GppNHp; 2 hours pre-incubation, 2 hours reaction; read-out: G12C_exchange. An outline of the steps: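 Fluorescence exchange of bodipy-GDP for GppNHp, SOS1-driven, read at 485/520 nm; IC50 from four-parameter variable-slope fit. Both mutants used 2.5 nM final labelled protein and a 2 h compound pre-incubation. G12C reaction had 500 uM GppNHp and 150 nM SOS1 for 2 h; G12D ran 4 h.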
Chain of KRAS G12C (P01116 1-188 isoform P01116-2 G12C): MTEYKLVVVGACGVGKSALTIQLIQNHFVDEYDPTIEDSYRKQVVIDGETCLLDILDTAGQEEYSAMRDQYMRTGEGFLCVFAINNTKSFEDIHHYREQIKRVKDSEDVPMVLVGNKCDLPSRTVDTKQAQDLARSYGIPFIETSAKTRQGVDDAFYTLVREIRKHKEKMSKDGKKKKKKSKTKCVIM

The test system of experiment [1] is MIA PaCa-2 (KRAS G12C) cells. The experiment is described as follows: Cellular pERK HTRF assay (KRAS_G12C pERK). Type of experiment: cell-based, human. The conditions noted are these: Homo sapiens, MIA PaCa-2, 4 hours incubation, read-out: G12C_pERK. The gist of the method:
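MIA PaCa-2 cells plated overnight, then exposed to compound for 4 h at 37 °C (G12C compounds). Phospho-ERK1/2 measured in lysates by HTRF (665/620 nm) after overnight antibody incubation; IC50 from percent inhibition versus log concentration.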
(In general: Time-resolved FRET reads energy transfer from a long-lived donor to a nearby acceptor.)

Turning to `C=CC(=O)N1CC[C@H](n2nnc3c(N4CC(N(C)C)C4)nc4c(F)c(-c5c(C)c(Cl)cc6[nH]ncc56)c(Cl)cc4c32)C[C@H]1CC#N` (single isomer, unassigned) [Example 185a], the IC50 (at KRAS G12C; in experiment [1]) was not above 100 nM each time.
Turning to `CC#CC(=O)N1CC[C@H](n2nnc3c(O[C@@H](C)CN(C)C)nc4c(F)c(-c5cccc(Cl)c5C)c(Cl)cc4c32)C[C@H]1CC#N` [Example 94, 2-((2S,4S)-1-(but-2-ynoyl)-4-(8-chloro-7-(3-chloro-2-methylphenyl)-4-(((S)-1-(dimethylamino)propan-2-yl)oxy)-6-fluoro-1H-[1,2,3]triazolo[4,5-c]quinolin-1-yl)piperidin-2-yl)acetonitrile], the IC50 (on KRAS G12C; in experiment [1]) was not above 100 nM in each case.
Turning to `Cc1c(Cl)cc2[nH]ncc2c1-c1c(Cl)cc2c(nc(N3CC(N(C)C)C3)c3nnn([C@H]4CCN(C(=O)/C=C/CN(C)C)[C@H](CC#N)C4)c32)c1F` [Example 179a, 2-((2S,4S)-4-(8-chloro-7-(6-chloro-5-methyl-1H-indazol-4-yl)-4-(3-(dimethylamino)-azetidin-1-yl)-6-fluoro-1H-[1,2,3]triazolo[4,5-c]quinolin-1-yl)-1-((E)-4-(dimethyl-amino)but-2-enoyl)piperidin-2-yl)acetonitrile], the IC50 (at KRAS G12C; in experiment [1]) was not above 100 nM each time.
For the compound `Cc1cccc(-c2c(C)cc3c(nc(N4CC(N(C)C)C4)c4nnn([C@H]5CCN(C(=O)/C=C/CN(C)C)[C@H](CC#N)C5)c43)c2F)c1Cl` [Example 249, 2-((2S,4S)-4-(7-(2-chloro-3-methylphenyl)-4-(3-(dimethylamino)azetidin-1-yl)-6-fluoro-8-methyl-1H-[1,2,3]triazolo[4,5-c]quinolin-1-yl)-1-((E)-4-(dimethylamino)but-2-enoyl)piperidin-2-yl)acetonitrile], the IC50 (at KRAS G12C; in experiment [1]) was not above 100 nM each time.
Regarding `CC#CC(=O)N1CC[C@H](n2cnc3c(N4CC(N(C)C)C4)nc4c(F)c(-c5cccc(C)c5C(F)(F)F)c(Cl)cc4c32)C[C@H]1CC#N` [Example 263, 2-((2S,4S)-1-(but-2-ynoyl)-4-(8-chloro-4-(3-(dimethylamino)azetidin-1-yl)-6-fluoro-7-(3-methyl-2-(trifluoromethyl)phenyl)-1H-imidazo[4,5-c]quinolin-1-yl)piperidin-2-yl)acetonitrile], the IC50 (on KRAS G12C; in experiment [1]) was not above 100 nM each time.
`C=CC(=O)N1CC[C@H](n2cnc3c(N4CC(N(C)C)C4)nc4c(F)c(-c5cc(O)ccc5F)c(Cl)cc4c32)C[C@H]1CC#N` [Example 55, 2-((2S,4S)-1-acryloyl-4-(8-chloro-4-(3-(dimethylamino)azetidin-1-yl)-6-fluoro-7-(2-fluoro-5-hydroxyphenyl)-1H-imidazo[4,5-c]quinolin-1-yl)piperidin-2-yl)acetonitrile]: the IC50 (at KRAS G12C; in experiment [1]) was not above 100 nM each time.
Turning to `C=CC(=O)N1CC[C@H](n2cnc3c(N4CC(N(C)C)C4)nc4c(F)c(-c5c(OC)ccc6ccccc56)c(Cl)cc4c32)C[C@H]1CC#N` [Example 66, 2-((2S,4S)-1-acryloyl-4-(8-chloro-4-(3-(dimethylamino)azetidin-1-yl)-6-fluoro-7-(2-methoxynaphthalen-1-yl)-1H-imidazo[4,5-c]quinolin-1-yl)piperidin-2-yl)acetonitrile], the IC50 (on KRAS G12C; in experiment [1]) was not above 100 nM throughout.
Turning to `C=CC(=O)N1CCC(n2nnc3c(N4CC(C)(N(C)C)C4)nc4c(F)c(-c5cccc(C)c5)c(Cl)cc4c32)C[C@H]1CC#N` (stereo partly drawn) [Example 211, 2-((2S)-1-acryloyl-4-(8-chloro-4-(3-(dimethylamino)-3-methylazetidin-1-yl)-6-fluoro-7-(m-tolyl)-1H-[1,2,3]triazolo[4,5-c]quinolin-1-yl)piperidin-2-yl)acetonitrile], the IC50 (at KRAS G12C; in experiment [1]) was not above 100 nM in each case.
Turning to `C=CC(=O)N1CC[C@H](n2nnc3c(N4CC(N(C)C)C4)nc4c(F)c(-c5cccc(C)c5C)c(C)cc4c32)C[C@H]1CC#N` [Example 147, 2-((2S,4S)-1-acryloyl-4-(4-(3-(dimethylamino)azetidin-1-yl)-7-(2,3-dimethylphenyl)-6-fluoro-8-methyl-1H-[1,2,3]triazolo[4,5-c]quinolin-1-yl)piperidin-2-yl)acetonitrile], the IC50 (on KRAS G12C; in experiment [1]) was not above 100 nM in each case.
In the case of `C=CC(=O)N1CC[C@H](n2cnc3c(N4CC(N(C)C)C4)nc4c(F)c(-c5ccccc5)c(Cl)cc4c32)C[C@H]1CC#N` [Example 45, 2-((2S,4S)-1-acryloyl-4-(8-chloro-4-(3-(dimethylamino)azetidin-1-yl)-6-fluoro-7-phenyl-1H-imidazo[4,5-c]quinolin-1-yl)piperidin-2-yl)acetonitrile], the IC50 (on KRAS G12C; in experiment [1]) was not above 100 nM throughout.
On to `C=C(F)C(=O)N1CC[C@H](n2nnc3c(OC[C@@H]4CCCN4C)nc4c(F)c(-c5c(C)c(Cl)cc6[nH]ncc56)c(Cl)cc4c32)C[C@H]1CC#N` [Example 192, 2-((2S,4S)-4-(8-chloro-7-(6-chloro-5-methyl-1H-indazol-4-yl)-6-fluoro-4-(((S)-1-methylpyrrolidin-2-yl)methoxy)-1H-[1,2,3]triazolo[4,5-c]quinolin-1-yl)-1-(2-fluoroacryloyl)piperidin-2-yl)acetonitrile], for which the IC50 (at KRAS G12C; in experiment [1]) was not above 100 nM throughout.
On to `C=CC(=O)N1C[C@H](C)[C@@H](n2cnc3c(N4CC(N(C)C)C4)nc4c(F)c(-c5cc(O)cc6ccccc56)c(Cl)cc4c32)C1` (racemic) [Example 31a, 1-((trans)-3-(8-chloro-4-(3-(dimethylamino)azetidin-1-yl)-6-fluoro-7-(3-hydroxynaphthalen-1-yl)-1H-imidazo[4,5-c]quinolin-1-yl)-4-methylpyrrolidin-1-yl)prop-2-en-1-one], for which the IC50 (at KRAS G12C; in experiment [1]) was not above 100 nM in each case.
On to `C=CC(=O)N1CC[C@H](n2cnc3c(N4CC(N(C)C)C4)nc4c(F)c(-c5cccc(C#N)c5C)c(Cl)cc4c32)C[C@H]1CC#N` [Example 17, 3-(1-((2S,4S)-1-acryloyl-2-(cyanomethyl)piperidin-4-yl)-8-chloro-4-(3-(dimethylamino)azetidin-1-yl)-6-fluoro-1H-imidazo[4,5-c]quinolin-7-yl)-2-methylbenzonitrile], for which the IC50 (on KRAS G12C; in experiment [1]) was not above 100 nM throughout.
Take `C=CC(=O)N1CCC(n2nnc3c(OC[C@@H]4CCCN4C)nc4c(F)c(-c5cccc(C)c5)c(Cl)cc4c32)C[C@H]1CC#N` (stereo partly drawn) [Example 210, 2-((2S)-1-acryloyl-4-(8-chloro-6-fluoro-4-(((S)-1-methylpyrrolidin-2-yl)methoxy)-7-(m-tolyl)-1H-[1,2,3]triazolo[4,5-c]quinolin-1-yl)piperidin-2-yl)acetonitrile]: the IC50 (on KRAS G12C; in experiment [1]) was not above 100 nM each time.
Consider `C=CC(=O)N1CC[C@H](n2nnc3c(OC[C@@H]4CCCN4C)nc4c(Cl)c(-c5cc(F)cc6cccnc56)c(Cl)cc4c32)C[C@H]1CC#N` (single isomer, unassigned) [Example 289a], for which the IC50 (on KRAS G12C; in experiment [1]) was not above 100 nM each time.
Regarding `C=CC(=O)N1CC[C@H](n2nnc3c(N4CC(C)(N(C)C)C4)nc4c(F)c(-c5ccc(F)cc5)c(C)cc4c32)C[C@H]1CC#N` [Example 127, 2-((2S,4S)-1-acryloyl-4-(4-(3-(dimethylamino)-3-methylazetidin-1-yl)-6-fluoro-7-(4-fluorophenyl)-8-methyl-1H-[1,2,3]triazolo[4,5-c]quinolin-1-yl)piperidin-2-yl)acetonitrile], the IC50 (on KRAS G12C; in experiment [1]) was not above 100 nM each time.
With `CN(C)C/C=C/C(=O)N1CCC(n2nnc3c(N4CC(C)(N(C)C)C4)nc4c(F)c(-c5cccc6cccc(Cl)c56)c(Cl)cc4c32)C[C@H]1CC#N` (stereo partly drawn) [Example 217, 2-((2S)-4-(8-chloro-7-(8-chloronaphthalen-1-yl)-4-(3-(dimethylamino)-3-methylazetidin-1-yl)-6-fluoro-1H-[1,2,3]triazolo[4,5-c]quinolin-1-yl)-1-((E)-4-(dimethylamino)but-2-enoyl)piperidin-2-yl)acetonitrile], the IC50 (at KRAS G12C; in experiment [1]) was not above 100 nM in each case.
On to `CC#CC(=O)N1CC[C@H](n2nnc3c(N4CC(N(C)C)C4)nc4c(Cl)c(-c5ccc(F)c6cccnc56)c(Cl)cc4c32)C[C@H]1CC#N` [Example 274a, 2-((2S,4S)-1-(but-2-ynoyl)-4-(6,8-dichloro-4-(3-(dimethylamino)azetidin-1-yl)-7-(5-fluoroquinolin-8-yl)-1H-[1,2,3]triazolo[4,5-c]quinolin-1-yl)piperidin-2-yl)acetonitrile], for which the IC50 (at KRAS G12C; in experiment [1]) was not above 100 nM throughout.
Consider `C=CC(=O)N1CC[C@H](n2nnc3c(OC[C@@H]4CCCN4C)nc4c(F)c(-c5ccc(F)c(C)c5)c(C)cc4c32)C[C@H]1CC#N` [Example 199, 2-((2S,4S)-1-acryloyl-4-(6-fluoro-7-(4-fluoro-3-methylphenyl)-8-methyl-4-(((S)-1-methylpyrrolidin-2-yl)methoxy)-1H-[1,2,3]triazolo[4,5-c]quinolin-1-yl)piperidin-2-yl)acetonitrile], for which the IC50 (on KRAS G12C; in experiment [1]) was not above 100 nM each time.
In the case of `C=CC(=O)N1CCC(n2cnc3c(OC[C@@H]4CCCN4C)nc4c(F)c(-c5cc(O)cc6ccccc56)c(Cl)cc4c32)C1` (mixture of isomers) [Example 7, 1-(3-(8-chloro-6-fluoro-7-(3-hydroxynaphthalen-1-yl)-4-(((S)-1-methyl-pyrrolidin-2-yl)methoxy)-1H-imidazo[4,5-c]quinolin-1-yl)pyrrolidin-1-yl)prop-2-en-1-one], the IC50 (on KRAS G12C; in experiment [1]) was not above 100 nM each time.

(Values after patent publication US20210269434A1, “TRICYCLIC COMPOUNDS AS INHIBITORS OF KRAS” (Incyte Corporation, priority 2020, published 2021).)
